Test results published in patent US20240285557A1, “PHARMACEUTICAL COMPOSITION COMPRISING LIPASE INHIBITOR FOR TREATMENT OR TREATMENT OF RNA VIRAL INFECTIONS” (priority 2021, published 2024).
pIC50: −log10 of the molar value. “Also recorded” adds a separate entry of the source. Like-named read-outs stand apart in the source and are kept apart here.

Legend:
[1] = MTT half-maximal cytotoxic concentration (CC50); details: pig
Method: (§1) To determine the half-maximal cytotoxic concentration (CC50) of the lipase inhibitors atglistatin and CAY10499, Vero E6, A549, HRT-18G, MA104, MARC-145, and LLC-PK cells were prepared in monolayers in 96-well plates.
(§2) The cells were treated with the drugs for 24 hours, and the culture media was removed before addition of 200 μL of 3-(4,5-dimethylthiazol-2-yl)-2,5-diphenyl tetrazolium bromide (MTT) solution to each well. The plates were then incubated for 4 hours in a 5% CO2 incubator at 36° C. Subsequently, 150 μL of DMSO solution was added to each well and incubated at 20° C. The optical density (OD) was measured at 570 nm wavelength using an enzyme-linked immunosorbent assay (ELISA) reader.

[2] = system: Influenza A virus (H1N1) (PR8); experiment: microbe, parasite or virus in culture; details: H1N1|PR8, A549, 12 h, drug added after 12 hours, additional 12 hours
SARS-COV-2 KCDC03 strain = experiment: SARS-CoV-2-infected hamsters treated with lipase inhibitor; details: for alleviation (reduction) of pneumonia severity: 80 mg kg^−1 day^−1 intraperitoneally for 4.5 days; for pneumonia severity: 20, 40, 80 mg kg^−1 day^−1, dose-dependent; for production of free fatty acids and glycerol in lung tissue: 20 to 80 mg kg^−1 day^−1; for number of viral genes (viral genome copy number) in lung tissue / progeny viruses in lung tissue: fifth day post-infection; for weight loss: five days observation
SARS-COV-2 strain KCDC03 = format: cell-based
[3] = system: influenza A virus PR8 strain; format: cell-based
[4] = system: Porcine epidemic diarrhea coronavirus (QIAP1401); experiment: organism not typed; details: Vero C1008, 18 h
[5] = MTT half-maximal cytotoxic concentration (CC50); details: rhesus monkey
Method: as §1, §2

[6] = system: Porcine respiratory reproductive syndrome virus (LMY); experiment: microbe, parasite or virus in culture; details: Porcine reproductive and respiratory syndrome virus, MARC145, in Sus scrofa, 18 h
[7] = CC50 range over the cell line panel
Method: as §1, §2

[8] = system: spike (S) protein of SARS-COV-2; experiment: Palmitoylation assay in SARS-CoV-2-infected Vero E6 cells; format: cell-based; details: Vero E6, 20 μM; vs vehicle
Method: CO2 incubator. The cells were then washed with phosphate-buffered saline, and DMEM supplemented with 1 μg/ml TPCK-treated trypsin, 100 u/ml penicillin, and 100 ug/ml streptomycin was added. Afterward, the cells were incubated in a 37° C. CO2 incubator for 18 hours. […] Following an additional 18-hour incubation, the cells were washed with phosphate-buffered saline, treated with trypsin, harvested, and centrifuged. The palmitoylation assay (Badrilla, Leeds, UK) was then conducted on these cells according to the manufacturer's instructions.
The cell pellet was washed with phosphate-buffered saline and then mixed with Buffer A containing Thiol Blocking Reagent. The mixture was incubated at 40° C. for 4 hours with continuous stirring. Subsequently, 70% acetone was added to precipitate the proteins, and the supernatant was discarded. The acetone addition process was repeated five times. The pellet was thoroughly washed, followed by elution in a binding buffer at 40° C. for 3 hours. A portion of the eluted supernatant was mixed with Laemmli Sample Buffer and used as an input control for total protein, while the remainder underwent a purification process for palmitoylated proteins.
Initially, the total protein supernatant was mixed with CAPTUREome™ Capture Resin and Thio Cleavage Reagent, and the mixture was incubated on a rotary mixer at 20° C. for 3 hours. […]

[9] = system: Porcine sapovirus (Cowden); experiment: microbe, parasite or virus in culture; details: Sapporo virus, LLCPK, 18 h
[10] = system: influenza A virus hemagglutinin (H) and M2 proteins; format: cell-based; details: A549, 20 μM; vs vehicle
[11] = system: Species A Rotavirus (NCDV); experiment: microbe, parasite or virus in culture; details: MA104, in Bos taurus, 12 h
[12] = system: Bovine coronavirus (KWD20); experiment: microbe, parasite or virus in culture; details: Betacoronavirus 1, 18 h
MA104 cells [13] = system: MA104 cells
Method: as §1, §2

[14] = system: porcine sapovirus Cowden strain; experiment: Viral antigen expression (Western blot, immunofluorescence) in infected LLC-PK cells; format: cell-based; details: porcine sapovirus VPg protein, 1, 10, 20 μM
LLC-PK cells = experiment: MTT half-maximal cytotoxic concentration (CC50); details: LLC-PK; drugs for 24 hours, MTT
Method: as §1, §2

[15] = system: influenza A virus PR8 strain; format: cell-based; details: influenza A virus M2 protein, A549; 1, 10, 20 μM
[16] = system: porcine epidemic diarrhea coronavirus QIAP1401 strain; experiment: Viral antigen expression (Western blot, immunofluorescence) in infected Vero E6 cells; format: cell-based; details: PEDV nucleocapsid protein, 1, 10, 20 μM
Method: The virus was incubated at 37° C. for 18 hours, after which the medium was changed with a medium containing DABPU-EM or DABPU-DE at a final concentration of 1 μM, […], or 20 μM. Following an additional 18 hours of incubation, the Vero E6 cells in 6-well plates were washed with phosphate-buffered saline, collected by scaping, and centrifuged. The cell pellet thus obtained was subjected to Western blot analysis. The intensity of the porcine epidemic diarrhea coronavirus nucleocapsid protein detected was assessed by comparison with the relative positive signals of the internal control beta-actin using the ImageJ software. Separately, the Vero E6 cells in 8-well chambers were washed with phosphate-buffered saline, fixed with 4% paraformaldehyde, and then subjected to immunofluorescence staining for porcine epidemic diarrhea coronavirus nucleocapsid protein in the same manner as described in the foregoing.

MA104 cells [17] = experiment: MTT half-maximal cytotoxic concentration (CC50); details: MA104; drugs for 24 hours, MTT
Method: as §1, §2

[18] = system: bovine coronavirus KWD20 strain; format: cell-based; details: bovine coronavirus spike protein, HRT-18G; 1, 10, 20 μM
SARS COV-2 KCDC03 strain = format: cell-based; details: SARS-CoV-2 spike protein, Vero E6; 1, 10, 20 μM
[19] = listed as atglistatin (DABPU-DM)
[20] = vs untreated virus-inoculated group

Method for HRT18G cells: as §1, §2

Structure (SMILES) | CC50 at 24 h [1] [µM] | pIC50 [2] | alleviation (reduction) of pneumonia severity (SARS-COV-2 KCDC03 strain) [%] | pneumonia severity (SARS-COV-2 KCDC03 strain) | production of free fatty acids and glycerol in lung tissue (SARS-COV-2 KCDC03 strain) | number of viral genes (viral genome copy number) in lung tissue (SARS-COV-2 KCDC03 strain) | progeny viruses in lung tissue (SARS-COV-2 KCDC03 strain) | weight loss (SARS-COV-2 KCDC03 strain) | free fatty acids and glycerol in the cytoplasm (SARS-COV-2 strain KCDC03) | number of lipid droplets (SARS-COV-2 strain KCDC03) | progeny virus count (SARS-COV-2 strain KCDC03) | viral gene count (SARS-COV-2 strain KCDC03) | virus spike protein synthesis (SARS-COV-2 strain KCDC03) | levels of free fatty acids and glycerol in the cytoplasm [3] | number of lipid droplets [3] | production of virus M2 protein [3] | progeny virus titer [3] | viral genome copy [3] | pIC50 [4] | CC50 at 24 h [5] [µM] | further results
CN(C)C(=O)Nc1cccc(-c2ccc(N(C)C)cc2)c1 [Atglistatin, 3-(4′-(dimethylamino)-(1,1′-biphenyl)-3-yl)-1,1-dimethylurea] | 224 | 6.09 | 73 | alleviating pneumonia severity in a dose-dependent manner | significantly reducing | significant decrease | significant decrease | ceasing weight loss | significant decrease | did not decrease significantly | significant decrease | significant decrease | significant decrease | significant decrease | did not significantly decrease | significant decrease | significant decrease | significant decrease | 5.71 | 214 | alleviation (reduction) of pneumonia severity (SARS-COV-2 KCDC03 strain; [19]): 70%; production of free fatty acids and glycerol in lung tissue (SARS-COV-2 KCDC03 strain; [19]): decreasing; number of viral genes (viral genome copy number) in lung tissue (SARS-COV-2 KCDC03 strain; [19]): significantly reduced; progeny viruses in lung tissue (SARS-COV-2 KCDC03 strain; [19]): significantly reduced; weight loss (SARS-COV-2 KCDC03 strain; [19]): blocking weight loss; level of viral antigens in the alveolar epithelial cells (SARS-COV-2 KCDC03 strain; [20]): significant decrease; lung lesions, including interstitial pneumonia, and number of virus-positive cells (SARS-COV-2 KCDC03 strain; [20]): alleviating and reducing; number of lipid droplets in alveolar epithelial cells (SARS-COV-2 KCDC03 strain; [20]): did not decrease significantly; pIC50 [6]: 5.60; CC50 at 24 h [7]: 182 to 269 µM; palmitoylation of the spike (S) protein of SARS-COV-2 [8]: significantly reduced; pIC50 [9]: 5.51; palmitoylation of both hemagglutinin (H) and M2 proteins [10]: significantly decreased; pIC50 [11]: 5.17; pIC50 [12]: 5.92
COc1nn(-c2ccc(NC(=O)OCc3ccccc3)c(C)c2)c(=O)o1 [CAY10499] |  |  |  |  |  |  |  |  | significant decrease | did not decrease significantly | significant decrease | significant decrease | significant decrease | significant decrease | did not significantly decrease | significant decrease | significant decrease | significant decrease |  |  | CC50 (HRT18G cells): 104 µM; CC50 (MA104 cells [13]): 107 µM; palmitoylation of the spike (S) protein of SARS-COV-2 [8]: significantly reduced; palmitoylation of both hemagglutinin (H) and M2 proteins [10]: significantly decreased
CCN(CC)C(=O)Nc1cccc(-c2ccc(N(C)C)cc2)c1 [DABPU-DE] |  |  | 75 | alleviating pneumonia severity in a dose-dependent manner | decreasing; also recorded: lower levels | significantly reduced | significantly reduced | blocking weight loss |  |  |  |  |  |  |  |  |  |  |  |  | expression levels of the viral antigen in infected cells [14]: higher inhibitory effects of DABPU-DE than DABPU-EM; CC50 (LLC-PK cells): 226 µM; expression levels of the viral antigen in infected cells [15]: higher inhibitory effects of DABPU-DE than DABPU-EM; expression levels of the viral antigen in infected cells [16]: higher inhibitory effects of DABPU-DE than DABPU-EM; CC50 (MA104 cells [17]): 209 µM; expression levels of the viral antigen in infected cells [18]: higher inhibitory effects of DABPU-DE than DABPU-EM; expression levels of the viral antigen in infected cells (SARS COV-2 KCDC03 strain): higher inhibitory effects of DABPU-DE than DABPU-EM
CCN(C)C(=O)Nc1cccc(-c2ccc(N(C)C)cc2)c1 [DABPU-EM, 3-(4′-(dimethylamino)-(1,1′-biphenyl)-3-yl)-1-ethyl-1-methylurea] | 231 | 5.79 |  |  |  |  |  |  |  |  |  |  |  |  |  |  |  |  | 5.71 | 223 | expression levels of the viral antigen in infected cells [14]: inhibitory activity; expression levels of the viral antigen in infected cells [15]: inhibitory activity; expression levels of the viral antigen in infected cells [16]: inhibitory activity; pIC50 [6]: 5.57; CC50 at 24 h ([7]; human, African green monkey, dog, pig): 186 to 231 µM; expression levels of the viral antigen in infected cells [18]: inhibitory activity; pIC50 [9]: 5.43; expression levels of the viral antigen in infected cells (SARS COV-2 KCDC03 strain): inhibitory activity; pIC50 [11]: 5.15; pIC50 [12]: 5.46
